According to patent US9988390B2, “Pyrimidone derivatives and their use in the treatment, amelioration or prevention of a viral disease” (F. Hoffmann-La Roche AG, priority 2015, dated 2018):

Each molecule was assayed on influenza A virus (A/WSN/33 NanoLuc reporter virus) in A549 cells (assay: microbe, parasite or virus in culture). Settings: A549, 24 h, read-out: IC50 values of viral replication inhibition in a cell-based Luciferase Reporter Assay (LRA).
Format: cell-based
`COc1nc(=O)c(O)c2n1[C@@H](C(c1ccccc1)c1ccccc1)CN([C@H](C)C(F)(F)F)C2=O` [Ia-66, (4S)-4-Benzhydryl-9-hydroxy-6-methoxy-2-[(1R)-2,2,2-trifluoro-1-methyl-ethyl]-3,4-dihydropyrazino[1,2-c]pyrimidine-1,8-dione] showed an IC50 of 26 nM.
Molecule `COc1nc(=O)c(O)c2n1[C@@H](C(c1ccc(F)cc1)c1ccc(F)cc1)CN(C(C)C)C2=O` [Ia-71, (4S)-4-[Bis(4-fluorophenyl)methyl]-9-hydroxy-2-isopropyl-6-methoxy-3,4-dihydropyrazino[1,2-c]pyrimidine-1,8-dione] has an IC50 of 47 nM.
In the case of `CC(C)N1C[C@H](C(c2ccccc2)c2ccccc2)n2cnc(=O)c(O)c2C1=O` [Ia-27, (4S)-4-Benzhydryl-9-hydroxy-2-isopropyl-3,4-dihydropyrazino[1,2-c]pyrimidine-1,8-dione], the IC50 is reported as 232 nM.
For `CC(C)N1C[C@H](C2c3ccccc3CCc3ccccc32)n2c([S+](C)[O-])nc(=O)c(O)c2C1=O` (stereo partly drawn) [Ia-31, (4S)-4-(6,11-Dihydro-5H-dibenzo[2,1-b:1′,2′-e][7]annulen-11-yl)-9-hydroxy-2-isopropyl-6-methylsulfinyl-3,4-dihydropyrazino[1,2-c]pyrimidine-1,8-dione], the IC50 was 15 nM.
With `C=Cc1nc(=O)c(O)c2n1C(C1c3ccccc3CCc3ccccc31)CN(C(C)C)C2=O` (stereo not shown) [Ia-47, 4-(6,11-Dihydro-5H-dibenzo[2,1-b:1′,2′-e][7]annulen-11-yl)-9-hydroxy-2-isopropyl-6-vinyl-3,4-dihydropyrazino[1,2-c]pyrimidine-1,8-dione] the IC50 was 40 nM.
`CC(C)N1C[C@H](C(c2ccccc2)c2ccccc2)n2c(-n3cnnc3)nc(=O)c(O)c2C1=O` [Ia-44, (4S)-4-Benzhydryl-9-hydroxy-2-isopropyl-6-(1,2,4-triazol-4-yl)-3,4-dihydropyrazino[1,2-c]pyrimidine-1,8-dione] showed an IC50 of 130 nM.
Molecule `CN1C[C@H](C2c3ccccc3CCc3ccccc32)n2c(O)nc(=O)c(O)c2C1=O` [Example 1a-11, (4S)-4-(10,11-Dihydro-5H-dibenzo[a,d][7]annulen-5-yl)-6,9-dihydroxy-2-methyl-3,4-dihydro-2H-pyrazino[1,2-c]pyrimidine-1,8-dione] has an IC50 of 128 nM.
For `CC(C)N1CC(C2c3ccccc3CCc3ccccc32)n2c(S)nc(=O)c(O)c2C1=O` (stereo not shown) [Ia-75, 4-(6,11-Dihydro-5H-dibenzo[2,1-b:1′,2′-e][7]annulen-11-yl)-9-hydroxy-2-isopropyl-6-sulfanyl-3,4-dihydropyrazino[1,2-c]pyrimidine-1,8-dione], the IC50 was 45 nM.
For `CC(C)N1C[C@H](C(c2ccccc2)c2ccccc2)n2c(OCc3ccccc3)nc(=O)c(O)c2C1=O` [Example 1a-13, (4S)-4-Benzhydryl-6-benzyloxy-9-hydroxy-2-isopropyl-3,4-dihydropyrazino[1,2-c]pyrimidine-1,8-dione], the IC50 was 8320 nM.
`CC(C)N1C[C@H](C2c3ccccc3CCc3ccccc32)n2c(-n3ccnc3)nc(=O)c(O)c2C1=O` [Ia-45, (4S)-4-(6,11-Dihydro-5H-dibenzo[2,1-b:1′,2′-e][7]annulen-11-yl)-9-hydroxy-6-imidazol-1-yl-2-isopropyl-3,4-dihydropyrazino[1,2-c]pyrimidine-1,8-dione] gave an IC50 of 62 nM.
`CCS(=O)(=O)c1nc(=O)c(O)c2n1[C@@H](C(c1ccccc1)c1ccccc1)CN(C(C)C)C2=O` [Ia-39, (4S)-4-Benzhydryl-6-ethylsulfonyl-9-hydroxy-2-isopropyl-3,4-dihydropyrazino[1,2-c]pyrimidine-1,8-dione] gave an IC50 of 470 nM.
With `CC(C)N1C[C@H](C2c3ccccc3CCc3ccccc32)n2c(-n3cnnc3)nc(=O)c(O)c2C1=O` [Ia-46] the IC50 was 55 nM.
With `CC(C)N1C[C@H](C(c2ccccc2)c2ccccc2)n2c(-n3ccnc3)nc(=O)c(O)c2C1=O` [Ia-43, (4S)-4-Benzhydryl-9-hydroxy-6-imidazol-1-yl-2-isopropyl-3,4-dihydropyrazino[1,2-c]pyrimidine-1,8-dione] the IC50 was 495 nM.
`CSc1nc(=O)c(O)c2n1[C@@H](C(c1ccccc1)c1ccccc1)CN(C(C)C)C2=O` [Ia-23, (4S)-4-Benzhydryl-9-hydroxy-2-isopropyl-6-methylsulfanyl-3,4-dihydropyrazino[1,2-c]pyrimidine-1,8-dione] showed an IC50 of 36 nM.
In the case of `COc1nc(=O)c(O)c2n1[C@@H](C(c1ccccc1)c1ccccc1)CN(C(C)C)C2=O` [Example 1a-4, (4S)-4-Benzhydryl-9-hydroxy-2-isopropyl-6-methoxy-3,4-dihydropyrazino[1,2-c]pyrimidine-1,8-dione], the IC50 is reported as 14 nM.
For `CC(C)N1C[C@H](C(c2ccccc2)c2ccccc2)n2c(NC(C)C(F)(F)F)nc(=O)c(O)c2C1=O` (stereo partly drawn) [Ia-37, (4S)-4-Benzhydryl-9-hydroxy-2-isopropyl-6-[(2,2,2-trifluoro-1-methyl-ethyl)amino]-3,4-dihydropyrazino[1,2-c]pyrimidine-1,8-dione], the IC50 was 516 nM.
With `COC(=O)Nc1nc(=O)c(O)c2n1[C@@H](C(c1ccccc1)c1ccccc1)CN(C(C)C)C2=O` [Ia-56, Methyl N-[(4S)-4-benzhydryl-9-hydroxy-2-isopropyl-1,8-dioxo-3,4-dihydropyrazino[1,2-c]pyrimidin-6-yl]carbamate] the IC50 was 200 nM.
In the case of `CCN1CC(C(c2ccccc2)c2ccccc2)n2c(OC)nc(=O)c(O)c2C1=O` (stereo not shown) [Ia-64, 4-Benzhydryl-2-ethyl-9-hydroxy-6-methoxy-3,4-dihydropyrazino[1,2-c]pyrimidine-1,8-dione], the IC50 is reported as 50 nM.
Work on `CC(C)N1C[C@H](C(c2ccccc2)c2ccccc2)n2c(-c3ccccc3)nc(=O)c(O)c2C1=O` [Ia-42, (4S)-4-benzhydryl-9-hydroxy-2-isopropyl-6-phenyl-3,4-dihydropyrazino[1,2-c]pyrimidine-1,8-dione] yielded an IC50 of 126 nM.
`CC(C)N1C[C@H](C2c3ccccc3CCc3ccccc32)n2c(NS(C)(=O)=O)nc(=O)c(O)c2C1=O` [Ia-22, N-[(4S)-4-(6,11-dihydro-5H-dibenzo[1,2-a:2′,1′-d][7]annulen-11-yl)-9-hydroxy-2-isopropyl-1,8-dioxo-3,4-dihydropyrazino[1,2-c]pyrimidin-6-yl]methanesulfonamide] was tested, and the IC50 was 144 nM.
With `CC(C)N1C[C@H](C2c3ccccc3CCc3ccccc32)n2c(S(C)(=O)=O)nc(=O)c(O)c2C1=O` [Ia-76, (4S)-4-(6,11-Dihydro-5H-dibenzo[2,1-b:1′,2′-e][7]annulen-11-yl)-9-hydroxy-2-isopropyl-6-methylsulfonyl-3,4-dihydropyrazino[1,2-c]pyrimidine-1,8-dione] the IC50 was 13 nM.
`CC[S+]([O-])c1nc(=O)c(O)c2n1[C@@H](C(c1ccccc1)c1ccccc1)CN(C(C)C)C2=O` (stereo partly drawn) [Ia-32, (4S)-4-Benzhydryl-6-ethylsulfinyl-9-hydroxy-2-isopropyl-3,4-dihydropyrazino[1,2-c]pyrimidine-1,8-dione] was tested, and the IC50 was 117 nM.
In the case of `CC(C)N1C[C@H](C(c2ccccc2)c2ccccc2)n2c(N)nc(=O)c(O)c2C1=O` [Example 1a-3, (4S)-6-Amino-4-benzhydryl-9-hydroxy-2-isopropyl-3,4-dihydropyrazino[1,2-c]pyrimidine-1,8-dione], the IC50 is reported as greater than 50000 nM.

Same assay, conditions: A549, isomers identified by X-ray analysis, read-out: IC50
With `COc1nc(=O)c(O)c2n1[C@H]([C@H]1c3ccccc3CSc3ccccc31)CN(C(C)C)C2=O` (single isomer, unassigned) [Example 17] the IC50 was 28 nM.
With `COc1nc(=O)c(O)c2n1[C@H]([C@@H]1c3ccccc3CSc3ccccc31)CN(C(C)C)C2=O` (single isomer, unassigned) [Example 15] the IC50 was 34 nM.
